Experimental findings from BindingDB's records for doi:10.1021/jm960626t (Dupont Pharmaceuticals, 1997) are described below.

Each structure is given as a SMILES string. Structures can show the parent of a compound that is named as a salt.

Sequence of Integrin alpha-IIb/beta-3 (P05106 27-788 limits assumed): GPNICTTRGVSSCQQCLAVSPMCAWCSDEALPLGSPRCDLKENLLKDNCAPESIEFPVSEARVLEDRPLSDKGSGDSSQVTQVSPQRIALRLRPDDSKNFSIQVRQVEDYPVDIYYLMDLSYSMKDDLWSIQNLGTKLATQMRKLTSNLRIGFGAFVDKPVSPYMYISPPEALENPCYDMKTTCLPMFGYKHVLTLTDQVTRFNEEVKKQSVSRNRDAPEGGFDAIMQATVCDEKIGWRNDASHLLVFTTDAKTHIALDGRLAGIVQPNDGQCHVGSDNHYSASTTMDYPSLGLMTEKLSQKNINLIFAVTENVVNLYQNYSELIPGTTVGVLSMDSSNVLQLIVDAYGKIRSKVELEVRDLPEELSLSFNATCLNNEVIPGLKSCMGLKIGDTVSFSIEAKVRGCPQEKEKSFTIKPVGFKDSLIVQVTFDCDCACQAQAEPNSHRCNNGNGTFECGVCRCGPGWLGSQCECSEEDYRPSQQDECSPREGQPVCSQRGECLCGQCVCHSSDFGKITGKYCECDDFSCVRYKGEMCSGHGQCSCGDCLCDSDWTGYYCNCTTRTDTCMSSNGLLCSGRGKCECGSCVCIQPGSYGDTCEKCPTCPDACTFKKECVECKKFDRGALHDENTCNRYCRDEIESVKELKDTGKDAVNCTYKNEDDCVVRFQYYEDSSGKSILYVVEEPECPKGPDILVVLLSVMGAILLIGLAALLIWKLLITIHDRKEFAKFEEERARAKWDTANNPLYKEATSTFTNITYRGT
Sequence of Integrin alpha-IIb/beta-3 (P08514 32-887 limits assumed): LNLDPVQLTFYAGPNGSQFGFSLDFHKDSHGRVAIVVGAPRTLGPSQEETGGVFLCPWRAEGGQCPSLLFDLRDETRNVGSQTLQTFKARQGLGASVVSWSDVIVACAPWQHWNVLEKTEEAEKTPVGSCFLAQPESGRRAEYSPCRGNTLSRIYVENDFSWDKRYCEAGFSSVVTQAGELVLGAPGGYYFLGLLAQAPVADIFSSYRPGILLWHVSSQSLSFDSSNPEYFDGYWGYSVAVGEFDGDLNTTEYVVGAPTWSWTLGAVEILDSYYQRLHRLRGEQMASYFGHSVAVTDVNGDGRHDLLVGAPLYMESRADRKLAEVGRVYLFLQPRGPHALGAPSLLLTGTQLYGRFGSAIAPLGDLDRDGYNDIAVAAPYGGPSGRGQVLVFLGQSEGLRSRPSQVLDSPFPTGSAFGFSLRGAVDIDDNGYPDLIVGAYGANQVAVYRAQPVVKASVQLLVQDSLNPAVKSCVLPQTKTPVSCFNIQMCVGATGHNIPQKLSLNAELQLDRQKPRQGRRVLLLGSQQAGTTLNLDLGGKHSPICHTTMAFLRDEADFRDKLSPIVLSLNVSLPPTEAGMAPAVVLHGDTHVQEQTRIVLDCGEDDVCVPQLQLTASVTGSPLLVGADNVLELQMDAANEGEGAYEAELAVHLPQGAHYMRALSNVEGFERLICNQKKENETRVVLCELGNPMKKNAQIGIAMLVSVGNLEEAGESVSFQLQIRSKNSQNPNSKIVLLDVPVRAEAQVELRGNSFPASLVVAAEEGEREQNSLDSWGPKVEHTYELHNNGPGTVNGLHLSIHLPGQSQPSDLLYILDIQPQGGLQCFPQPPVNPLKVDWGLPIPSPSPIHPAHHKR
Sequence of Integrin alpha-IIb/beta-3 (P08514 891-1039 limits assumed): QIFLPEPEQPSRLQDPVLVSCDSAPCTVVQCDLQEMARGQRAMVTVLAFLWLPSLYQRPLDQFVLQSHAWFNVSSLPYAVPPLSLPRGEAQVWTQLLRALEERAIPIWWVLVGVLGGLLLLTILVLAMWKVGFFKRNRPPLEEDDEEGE

This assay concerns the target Integrin alpha-IIb/beta-3 (Homo sapiens, UniProt P08514+P05106). The experiment in a line: Inhibition of human platelet aggregation induced by ADP.
As for `N=C(N)c1ccc(C2=NO[C@@H](CC(=O)NCCC(=O)O)C2)cc1`, inhibition was half-maximal at 0.86 µM (IC50).

Consider `O=C(O)CC1CC(c2ccc(OCCC3CCNCC3)cc2)=NO1` (configuration not stated) [{3-[4-(2-Piperidin-4-yl-ethoxy)-phenyl]-4,5-dihydro-isoxazol-5-yl}-acetic acid], for which the IC50 (commonly the concentration at which inhibition is half-maximal) amounted to 8.3 µM. Next, `O=C(O)CCNC(=O)CC1CC(CCC2CCNCC2)=NO1` (configuration not stated) [3-{2-[3-(2-Piperidin-4-yl-ethyl)-4,5-dihydro-isoxazol-5-yl]-acetylamino}-propionic acid]: 0.63 µM. Next, `N=C(N)c1ccc(C2=NO[C@H](CC(=O)NCCC(=O)O)C2)cc1` [3-{2-[(S)-3-(4-Carbamimidoyl-phenyl)-4,5-dihydro-isoxazol-5-yl]-acetylamino}-propionic acid; TFA]: 0.06 µM. Compound `O=C(NC(C(=O)O)C1CC(c2ccc(OCCC3CCNCC3)cc2)=NO1)OCc1ccccc1` (configuration not stated) [Benzyloxycarbonylamino-{3-[4-(2-piperidin-4-yl-ethoxy)-phenyl]-4,5-dihydro-isoxazol-5-yl}-acetic acid] came in with an IC50 of 23 µM. For the compound `O=C(O)CCNC(=O)CC1CC(CC2CCNCC2)=NO1` (configuration not stated) [3-[2-(3-Piperidin-4-ylmethyl-4,5-dihydro-isoxazol-5-yl)-acetylamino]-propionic acid], the IC50 was over 100 µM. Take `O=C(O)CCC1CC(c2ccc(OCC3CCNCC3)cc2)=NO1` (configuration not stated) [3-{3-[4-(Piperidin-4-ylmethoxy)-phenyl]-4,5-dihydro-isoxazol-5-yl}-propionic acid]: the IC50 is 18 µM.
